This is an account of results in patent EP0803251B1, “Immediate release pH-independent solid dosage form of cisapride” (JANSSEN PHARMACEUTICA N.V., priority 1996, dated 1997).

The conditions of series [1]: formulations containing cisapride-(L)-tartrate release cisapride in a racemic form; cited from earlier work.
A short description of the next series: clinical. The note with it: in vivo; for tmax: po. As to the method:
A standard breakfast consists of four slices of bread, one slice of ham, one slice of cheese, butter, jelly and two cups of coffee or tea with if desired milk and/or sugar, was served. […] Thereafter, subjects could resume their usual diet.
The trial medication was taken with 100 ml water.
Blood samples were taken until 48 h post-dosing.
AUClast area under the plasma concentration-time curve from time 0 to the last time point (last quantifiable concentration, calculated by linear trapezoidal summation. AUC∞ area under the plasma concentration-time extrapolated to infinity t½term terminal half-life, defined as 0.693/Sz

Series [2] in a line: Dissolution of tablets at different pH-values, USP test <711>, USP-2 dissolution apparatus (paddle). In kind it is physicochemical. The note with it: conclusion in words. As to the method: The dissolution of tablets comprising cisapride-(L)-tartrate having the composition and prepared as described in Example 1 was compared with tablets comprising cisapride monohydrate instead of cisapride-(L)-tartrate (the rest of the composition and the preparation being the same) at different pH-values.
The test tablet was brought in a glass container containing 900 ml of the specified buffer at a temperature of 37 °C. The stirring is performed by a paddle at a rotational speed of 50 rpm (rotations per minute). This test is s set forth in USP test <711> in a USP-2 dissolution apparatus. This latter test is described in US Pharmacopeia XXII, pp 1578-1579. a) pH = ± 1.5 (HCl : 0.1 N)

Series [3] is described as follows: Dissolution of salts of cisapride in artificial gastric juice. Format: physicochemical.
The conditions of series [4]: human, in vivo. The text has this: (AUC is the abbreviation of Area Under the Curve, which is an indication of the amount of active ingredient that is present in the blood).

For the compound (-)-cisapride-(L)-tartrate, the “dissolution rates of the diastereomeric salt forms” value in series [1] is reported as “equal dissolution rates”.
Regarding `COc1cc(N)c(Cl)cc1C(=O)NC1CCN(CCCOc2ccc(F)cc2)CC1OC` (racemic) [cisapride-(L)-tartrate], the tmax came to 2.1 ± 0.7 h in “clinical” (human) and 1.4 ± 0.4 h in “clinical” (human, tmax). Besides, the “bioequivalence of the tartrate and monohydrate formulations” value in “clinical” is “bioequivalent”. Further, the “bioequivalence with respect to the total exposure (AUC∞)” value in the series “clinical” is recorded as “bioequivalence is demonstrated”. Moreover, the “influence of fed or fasting conditions on absorption, peak levels and total exposure” value in the series “clinical” was “little influence”. Further, the results for the “dissolution compared with cisapride monohydrate” value in series [2] (0.1 N HCl (pH = ± 1.5)), in series [2] (pH 4.5) and in series [2] (pH = 6.5) were “comparable”, “clearly better” and “clearly superior”, respectively. In series [3] (compared with other salts of cisapride), the “dissolution in artificial gastric juice” value is recorded as “better dissolution”.
Consider `COc1cc(N)c(Cl)cc1C(=O)N[C@H]1CCN(CCCOc2ccc(F)cc2)C[C@H]1OC` (relative stereo) [cisapride monohydrate, cis-4-amino-5-chloro-N-[1-[3-(4-fluorophenoxy)propyl]-3-methoxy-4-piperidinyl]-2-methoxybenzamide, reference compound], for which the “ratio of AUC in fed state over AUC in fasted state” value in series [4] is on record as “about 1.35”. Also, in the series “clinical” (human), the “higher exposure of cisapride in comparison with the fasting conditions” value amounted to 29%, the “higher peak levels of cisapride in comparison with the fasting conditions” value was determined as 33% and the tmax worked out at 2.3 ± 0.6 h. Also, the tmax in the series “clinical” (human, tmax) was 1.7 ± 0.5 h. Besides, in the series “clinical”, the “bioequivalence of the tartrate and monohydrate formulations” value was “bioequivalent”.
As for (+)-cisapride-(L)-tartrate, the “dissolution rates of the diastereomeric salt forms” value in series [1] is recorded as “equal dissolution rates”.
For the compound `COc1cc(N)c(Cl)cc1C(=O)NC1CCN(CCCOc2ccc(F)cc2)CC1OC` (racemic) [reference compound], the “dissolution compared with cisapride monohydrate” value in series [3] (salt forms of cisapride) is “dissolve slower than the cisapride monohydrate itself”.
